# Measurements reported in patent US6518289B1 (Pfizer, Inc., priority 1997, dated 2003).
# Counter-ions that a name gives are not always drawn.
# Columns and labels:
# DBA2 audiogenic seizure = DBA2 audiogenic seizure model
# [1] = system: carrageenan induced hyperalgesia; experiment: carrageenan induced hyperalgesia assay (Pain Model)
# [2] = 30 mg/kg orally in the rat, at 1 hour
# [3] = 30 mg/kg orally in the rat, at 2 hours
Structure (SMILES),"1 Hour (second column pair, group head not given) (DBA2 audiogenic seizure)","2 Hours (second column pair, group head not given) (DBA2 audiogenic seizure)",Pain Model % MPE 1 Hour [1],Pain Model % MPE 2 Hours [1],further results
Cl.NCC1(Cc2noc(=O)[nH]2)CCCCC1,20,40,80.6 % MPE,76.1 % MPE,"duration of antihyperalgesic effect compared with gabapentin ([1]; 30 mg/kg orally in the rat): antihyperalgesic effect of longer duration than gabapentin; increase of paw withdrawal latency [1, 2]: 80.6%; increase of paw withdrawal latency [1, 3]: 76%; activity in the carrageenan induced hyperalgesia assay ([1]; result in words): active"
CS(=O)(=O)NCCC1(CN)CCCCC1 (as salt: hydrochloride) [N-[2-1-Aminomethyl-cyclohexyl)-ethyl]-methanesulfonamide hydrochloride],,,,,melting point: 196 to 199 °C
"Cl.NCC1(Cc2noc(=S)[nH]2)CCCCC1 [3-(1-Aminomethyl-cyclohexylmethyl)-4H-[1,2,4]oxadiazole-5-thione; hydrochloride]",0,0,,,melting point: 210 to 212 °C
Cl.NCC1(Cc2nnn[nH]2)CCCCC1 [C-[1-(1H-Tetrazol-5-ylmethyl)-cyclohexyl)-methylamine hydrochloride],60,100,,,"protection (DBA2 audiogenic seizure; 10 mg/kg oral dosing, 1 hour postdose): 60%; protection (DBA2 audiogenic seizure; 10 mg/kg oral dosing, 2 hours postdose): 100%; protection (DBA2 audiogenic seizure; 10 mg/kg oral dosing, 4 hours postdose): 100%; protection (DBA2 audiogenic seizure; 10 mg/kg oral dosing, 6 hours postdose): 80%"
"NCC1(CC(=O)O)CCCCC1 [Gabapentin, 1-(aminomethyl)-cyclohexaneacetic acid, reference compound]",100,100,49.9 % MPE,19.9 % MPE,"response in the DBA2 audiogenic seizure model (DBA2 audiogenic seizure; 10 mg/kg orally, result in words): no significant response; protection (DBA2 audiogenic seizure; 30 mg/kg, 2 hours postdose): 100%; increase of paw withdrawal latency [1, 2]: 49.9%; increase of paw withdrawal latency [1, 3]: 19.9%"
CS(=O)(=O)NCCC1(CN)CCCCC1 [N-[2-1-Aminomethyl-cyclohexyl)-ethyl]-methanesulfonamide hydrochloride],,0,0.3 % MPE,−0.9 % MPE,
CC(C)(C)C(=O)NCCC1(CN)CCCCC1 [N-[2-(1-Aminomethyl-cyclohexyl)-ethyl]-t-butylamide],,0,1.6 % MPE,−4.8 % MPE,
